Values quoted from earlier work as cited in patent US20150272847A1, “Skin Engaging Shaving Aid Comprising A Thermally Resilient Sensate And A TRPA1 Receptor Inhibitor” (The Gillette Company, priority 2014, published 2015).

Settings: compared to menthol at 2 ppm

CC(C)[C@@H]1CC[C@@H](C)C[C@H]1C(=O)Nc1ccc(CC#N)cc1 [N-[4-(cyanomethyl)phenyl]-(1R,2S,5R)-2-isopropyl-5-methylcyclohexanecarboxamide]
Cooling as compared to menthol: about 10 ×
